What follows are compounds tested on Streptococcus pyogenes (ATCC# 97-03 14289) (assay: Anti-microbial screen (growth inhibition, OD 570 nm)). Settings: growth in Todd Hewitt Broth, plates read at 570 nm at 0 time and 4 hours, color corrected.
Type: cell-based
Also: test concentration or dose not given here.

| Compound | % Inhibition |
| --- | --- |
| Cc1ccc(C(=O)N2CCc3c(sc(NC(=O)c4ccc(C(C)(C)C)cc4)c3C(=O)O)C2)c(C)c1 | 82.83% |
| CCc1ccc(C(=O)Nc2sc3c(c2C(=O)O)CCN(C(=O)c2ccc(C(F)(F)F)cc2)C3)cc1 | 63.17% |
| CCCc1ccc(C(=O)Nc2sc3c(c2C(=O)O)CCN(C(=O)c2cccc(OC)c2OC)C3)cc1 | 76.44% |
| CCc1ccc(C(=O)Nc2sc3c(c2C(=O)O)CCN(C(=O)c2ccccc2Cl)C3)cc1 | 77.92% |
| Cc1c(F)cccc1C(=O)N1CCc2c(sc(NC(=O)CC(C)CC(C)(C)C)c2C(=O)O)C1 (stereo not drawn) | 77.56% |
| Cc1c(F)cccc1C(=O)N1CCc2c(sc(NC(=O)c3ccccc3Cl)c2C(=O)O)C1 | 62.62% |
| O=C(Nc1sc2c(c1C(=O)O)CCN(C(=O)c1ccc(C(F)(F)F)cc1)C2)c1ccccc1 | 72.63% |
| CCC(C(=O)Nc1sc2c(c1C(=O)O)CCN(C(=O)/C=C/c1ccc(Cl)cc1)C2)c1ccccc1 (stereo not drawn) | 82.18% |
| O=C(Nc1sc2c(c1C(=O)O)CCN(C(=O)/C=C/c1ccc(Cl)cc1)C2)c1ccccc1 | 93.13% |
| COc1cccc(C(=O)Nc2sc3c(c2C(=O)O)CCN(C(=O)c2cccc4ccccc24)C3)c1 | 82.32% |
| CCC(C(=O)Nc1sc2c(c1C(=O)O)CCN(C(=O)c1cccc3ccccc13)C2)c1ccccc1 (stereo not drawn) | 62.49% |
| CCc1ccc(C(=O)Nc2sc3c(c2C(=O)O)CCN(C(=O)C2CCC2)C3)cc1 | 65.14% |
| Cc1ccc(C(=O)N2CCc3c(sc(NC(=O)c4ccccc4Cl)c3C(=O)O)C2)cn1 | 69.18% |
| CCOc1ncccc1C(=O)N1CCc2c(sc(NC(=O)c3ccc(CC)cc3)c2C(=O)O)C1 | 67.76% |
| COc1ccc(OC)c(C(=O)N2CCc3c(sc(NC(=O)CCC4CCCC4)c3C(=O)O)C2)c1 | 86.05% |
| Cc1ccccc1C(=O)N1CCc2c(sc(NC(=O)c3ccc4ccccc4c3)c2C(=O)O)C1 | 78.88% |
| CCCSc1ncccc1C(=O)N1CCc2c(sc(NC(=O)c3ccc(Cl)cc3)c2C(=O)O)C1 | 66.79% |
| O=C(Nc1sc2c(c1C(=O)O)CCN(C(=O)c1ccco1)C2)c1ccccc1Cl | 78.12% |
| COc1cccc(C(=O)N2CCc3c(sc(NC(=O)c4ccc(Cl)cc4)c3C(=O)O)C2)c1OC | 77.82% |
| O=C(Nc1sc2c(c1C(=O)O)CCN(C(=O)c1ccc(F)c(F)c1)C2)c1ccc(Cl)cc1 | 82.59% |
| O=C(Nc1sc2c(c1C(=O)O)CCN(C(=O)/C=C/c1ccccc1Cl)C2)c1c(F)cccc1F | 77.66% |
| O=C(Nc1sc2c(c1C(=O)O)CCN(C(=O)c1cc3ccccc3s1)C2)c1ccccc1 | 67.5% |
| COc1ccc(OC)c(C(=O)N2CCc3c(sc(NC(=O)c4ccc(C(C)(C)C)cc4)c3C(=O)O)C2)c1 | 77.92% |

| Compound | % Inhibition |
| --- | --- |
| O=C(Nc1sc2c(c1C(=O)O)CCN(C(=O)c1ccsc1)C2)c1ccco1 | 66.72% |
| O=C(Nc1sc2c(c1C(=O)O)CCN(C(=O)c1ccsc1)C2)c1ccccc1 | 93.59% |
| CCCc1ccc(C(=O)Nc2sc3c(c2C(=O)O)CCN(C(=O)c2ccc(F)cc2F)C3)cc1 | 88.03% |
| O=C(Nc1sc2c(c1C(=O)O)CCN(C(=O)c1ccc(C(F)(F)F)cc1)C2)c1ccccc1Cl | 64.41% |
| O=C(Nc1sc2c(c1C(=O)O)CCN(C(=O)/C=C/c1ccc(Cl)cc1)C2)c1ccccc1Cl | 68.58% |
| O=C(Nc1sc2c(c1C(=O)O)CCN(C(=O)CC1CCCC1)C2)c1ccc(Cl)cc1 | 82.59% |
| Cc1c(F)cccc1C(=O)N1CCc2c(sc(NC(=O)c3ccco3)c2C(=O)O)C1 | 72.33% |
| CCCc1ccc(C(=O)Nc2sc3c(c2C(=O)O)CCN(C(=O)c2cc(OC)ccc2OC)C3)cc1 | 60.54% |
| C/C=C/C(=O)N1CCc2c(sc(NC(=O)c3ccccc3)c2C(=O)O)C1 | 94.99% |
| CC(=O)Nc1ccc(C(=O)N2CCc3c(sc(NC(=O)c4ccc(C(C)(C)C)cc4)c3C(=O)O)C2)cc1 | 71.69% |
| O=C(Nc1sc2c(c1C(=O)O)CCN(C(=O)c1ccccc1C(F)(F)F)C2)c1ccc(Cl)cc1 | 67.09% |
| O=C(Nc1sc2c(c1C(=O)O)CCN(C(=O)c1ccc(Cl)cc1)C2)c1ccc2ccccc2c1 | 76.7% |
| CCCc1ccc(C(=O)Nc2sc3c(c2C(=O)O)CCN(C(=O)c2ccc(Cl)cc2)C3)cc1 | 64.18% |
| O=C(Nc1sc2c(c1C(=O)O)CCN(C(=O)C1CCCCC1)C2)c1ccc(Cl)cc1 | 72.46% |
| O=C(Nc1sc2c(c1C(=O)O)CCN(C(=O)c1ccco1)C2)c1ccccc1 | 96.39% |
| O=C(O)c1c(NC(=O)C2CCCCC2)sc2c1CCN(C(=O)c1cc3ccccc3s1)C2 | 72.52% |
| O=C(Nc1sc2c(c1C(=O)O)CCN(C(=O)c1ccc(Cl)cc1)C2)c1ccccc1Cl | 72.75% |
| O=C(CCC1CCCC1)Nc1sc2c(c1C(=O)O)CCN(C(=O)c1ccccc1C(F)(F)F)C2 | 72.86% |
| CCc1ccc(C(=O)Nc2sc3c(c2C(=O)O)CCN(C(=O)c2ccc(C)cc2C)C3)cc1 | 85.78% |
| CSc1ncccc1C(=O)N1CCc2c(sc(NC(=O)c3ccccc3Cl)c2C(=O)O)C1 | 60.53% |
| CC(=O)Nc1cccc(C(=O)N2CCc3c(sc(NC(=O)c4ccccc4Cl)c3C(=O)O)C2)c1 | 72.75% |
| CC(C)(C)c1ccc(C(=O)Nc2sc3c(c2C(=O)O)CCN(C(=O)c2ccoc2)C3)cc1 | 61.2% |
